Measured values from US20170199175A1, “DEVICE AND METHOD FOR ASSESSING CELL CONTRACTION” (The Governing Council of the University of Toronto, priority 2014, published 2017).
“Also recorded” adds a separate entry of the source.

Tested on: fibroblasts
Assay: Wrinkling of PDMS silicone elastomer film by contractile fibroblasts (live videomicroscopy, kymograph analysis)
Type: cell-based, rat
Details: 1:100 PDMS film, plasma + APTES + paraformaldehyde + collagen; LPA 10 μM, cytochalasin D 1-10 μM, Y27632 10 μM
Description: Primary rat lung myofibroblasts and subcutaneous fibroblasts (SCF) were derived from explants and cultured from passage 2-7. All cells, including lineage aortic smooth muscle cells (A7r5) and rat embryonic fibroblasts (REF-52) were cultured in DMEM (Gibco-BRL, Basel, CH), containing 10% FCS and antibiotics. Cytochalasin D (Sigma) was used at 1-10 μM, blebbistatin (Calbiochem, Darmstadt, Germany) at 10 μM, Y27632 (Calbiochem) at 10 μM and lysophosphatic acid (LPA) (Sigma) at 10 μM. For FA maturation analysis, REF-52 were stably transfected with β3 integrin-GFP (16), full-length GFP-paxillin (Zamir et al, 2000), and α-SMA-GFP (Clement et al., 2005), using Fugene 6 (Roche, Reinach, CH).
To reduce pipetting errors and to ameliorate the mixing process, curing agent can be pre-diluted in toluene without changing the elastic properties of the polymerized material. PDMS films of 200 μm thickness were produced by distributing the respective volume with a pipette tip onto glass coverslips (#0, Karl Hecht KG, Sondheim, Germany) at the bottom of homemade observation chambers or on standard culture dishes. Substrates were degassed in a desiccator and polymerized for minimum 3 d at RT. Polymerized films were kept at RT for up to two months without changing compliance. Alternative polymerization protocols using higher curing temperatures are possible but will have an influence on the elastic modulus of the film (Lee et al., 2004). […]
Confocal images of fixed specimen were acquired using a 40× oil immersion objective (HC PL APO, NA 1.25-0.75, Leica, Glattbrugg, CH), mounted on an inverted confocal microscope (DM IRE2 with a laser scanning confocal head TCS SP2 AOBS, Leica). […] Phase contrast sequences were taken at a rate of 1 frame/min and live fluorescence images every 30 min using 20× (Plan-Apochromat, Ph2, NA 0.5) and 40× (Plan-Neofluar, Ph3, NA 1.3 oil immersion, Zeiss) objectives. […]
In the case of C[C@@H](N)[C@H]1CC[C@H](C(=O)Nc2ccncc2)CC1 [Y27632], the “cell contraction (number and extension of wrinkles)” value (“cell contraction” for short) is reported as “completely abolished”.
With C=C1[C@@H](C)[C@H]2[C@H](Cc3ccccc3)NC(=O)[C@]23[C@H](OC(C)=O)/C=C/[C@@](C)(O)C(=O)[C@@H](C)C/C=C/[C@H]3[C@@H]1O [cytochalasin D, Cytochalasin D] the “cell contraction” value was “completely abolished; also recorded: loss of cell contraction”.
With lysophosphatic acid [LPA] the “cell contraction” value was “increased cell contraction”.

Tested on: hES2-derived cardiomyocytes
Assay: Wrinkling-based contraction analysis of periodically contracting cardiomyocyte colonies on silicone elastomer film
Type: cell-based, human
Details: live treatment in three concentrations (high, medium, low): ouabain and nifidepine 0.3, 3, 30 μM; isoproterenol and blebbistatin 0.1, 1, 10 μM
Description: To meet standard requirements on product shelf life and ease-of-shipping, the surface treatment method was refined to provide the film surface with a dry layer of adhesive protein. The improved treatment process (“APTES/EDAC”) comprises sequential oxidation with plasma oxygen, 1% APTES for 90 min, 100 μg/ml 1-Ethyl-3-(3-dimethylaminopropyl) carbodiimide (EDAC) for 10 min (to replace the previous paraformaldehyde step), protein wet coating, and air drying. Fibronectin and gelatin were used as most widely applied proteins to promote cardiomyocyte adhesion.
The number of beating colonies was at least 20-30/well across all protein coatings following APTES/EDAC treatment but <10 beating colonies/well without APTES/EDAC functionalization (FIG. 17C). APTES/EDAC functionalization obtained wrinkles which were visible in ˜50% of all beating colonies (FIG. 17D). APTES/EDAC treated surfaces with fibronectin (2 μg/ml) and gelatin (2 and 20 μg/ml) coating were selected to optimize cell densities for contraction analysis. Cardiomyocyte seeding densities were reduced from 50,000 to 25,000, 10,000 and 5,000 cells/cm^2 and wrinkling percentages were quantified. With cell density adaptation, the percentage of wrinkling among beating colonies reached 80-90% across all protein coatings with 10,000-25,000 cells/cm^2. […] Too low density reduced the number of beating colonies and percentage of wrinkling cells (FIG. 17E). For all further experiments, the plasma oxidized and APTES/EDAC-treated biocompatible silicone elastomers of 96-wells were coated with gelatin at a concentration of 2 μg/ml and provided with 10,000 cells/cm^2 before wrinkling was assessed after 2 days.
Cardiomyocyte contraction was assessed by recording image sequences over at least 15 s with an image acquisition rate of 10 frames/s. Acquisition was performed well-by-well on four image fields per well using the 10× objective of an inverted microscope with motorized stage and fully automated stage/acquisition control. The setup was chosen to provide conditions equivalent to commercially available HTS imaging stations. […] When comparing the signals generated by contracting cardiomyocytes on films with the competitive method of shape analysis on stiff culture substrates, wrinkling analysis delivered a 10-20-fold higher signal (FIG. 18).
Referring to FIG. 28, periodically contracting cardiomyocyte colonies were recorded and live treated with cardiomyocyte affecting drugs in three concentrations (high, medium, low). Ouabain (0.3, 3, 30 μM) increased contraction amplitude at unchanged frequency, nifidepine (0.3, 3, 30 μM) decreased contraction amplitude and increased frequency, isoproterenol (0.1, 1, 10 μM) increased contraction frequency and amplitude, and blebbistatin (0.1, 1, 10 μM) decreased contraction amplitude and frequency.
With C[C@@H]1O[C@@H](O[C@H]2C[C@@H](O)[C@]3(CO)[C@H]4[C@H](O)C[C@]5(C)[C@@H](C6=CC(=O)OC6)CC[C@]5(O)[C@@H]4CC[C@]3(O)C2)[C@H](O)[C@H](O)[C@H]1O [Ouabain] the “contraction (beating) amplitude” value was “increased” and the “contraction (beating) frequency” value was “unchanged”.
For Cc1ccc2c(c1)C(=O)C1(O)CCN(c3ccccc3)C1=N2 (stereo not drawn) [blebbistatin], the “contraction (beating) amplitude” value was “decreased” and the “contraction (beating) frequency” value was “decreased”.
For CC(C)NCC(O)c1ccc(O)c(O)c1 (stereo not drawn) [isoproterenol], the “contraction (beating) amplitude” value was “increased” and the “contraction (beating) frequency” value was “increased”.
For COC(=O)C1=C(C)NC(C)=C(C(=O)OC)C1c1ccccc1[N+](=O)[O-] [nifidepine], the “contraction (beating) amplitude” value was “decreased” and the “contraction (beating) frequency” value was “increased”.

Tested on: cardiomyocytes
Assay: not given
Details: benchmark drugs, Yokoo et al. 2009 / Gai et al. 2009; cited from earlier work
In the case of CNCC(O)c1ccc(O)c(O)c1 (stereo not drawn) [adrenaline], the frequency of beating is listed as “increase”.
For COc1ccc([C@@H]2Sc3ccccc3N(CCN(C)C)C(=O)[C@@H]2OC(C)=O)cc1 [diltiazem], the frequency of beating is listed as “decrease”.
In the case of O=C(NCC1CCCCN1)c1cc(OCC(F)(F)F)ccc1OCC(F)(F)F (stereo not drawn) [felcainide], the frequency of beating is listed as “decrease”.
In the case of CC(C)NCC(O)c1ccc(O)c(O)c1 (stereo not drawn) [isoproterenol], the frequency of beating is given as “increase”.
For CNC[C@H](O)c1cccc(O)c1 [phenylephrine], the frequency of beating is listed as “increase”.
In the case of CCN(CC)CCNC(=O)c1ccc(N)cc1 [procainamide], the frequency of beating is listed as “decrease”.
In the case of COc1ccc(CCN(C)CCCC(C#N)(c2ccc(OC)c(OC)c2)C(C)C)cc1OC (stereo not drawn) [verapamil], the frequency of beating is given as “decrease”.
